According to patent US20150218212A1, “FLUORINATED EPOXYKETONE-BASED TETRAPEPTIDE COMPOUNDS AND USES THEREOF AS PROTEASOME INHIBITORS” (FLUORINOV PHARMA INC., priority 2012, published 2015):

Assays:
Format in all cases: cell-based, human
KM12 = experiment: NCI screening panel, KM12 (Colon Cancer)
Experimental: (§1) Representative compounds of Formula I were screened using the National Cancer Institute (NCI) screening panel, which consists of a panel of human tumor cell lines, representing leukemia, melanoma, and cancers of the lung, colon, ovary, breast, prostate and renal system.
(§2) After 24 h, two plates of each cell line are fixed in situ with TCA, to represent a measurement of the cell population for each cell line at the time of drug addition (Tz). Experimental drugs are solubilised in dimethyl sulfoxide at 400-fold the desired final maximum test concentration and stored frozen prior to use. At the time of drug addition, an aliquot of frozen concentrate is thawed and diluted to twice the desired final maximum test concentration with complete medium containing 50 μg/mL gentamicin. Additional four, 10-fold or ½ log serial dilutions are made to provide a total of five drug concentrations plus control. Aliquots of 100 μl of these different drug dilutions are added to the appropriate microtiter wells already containing 100 μl of medium, resulting in the required final drug concentrations.
(§3) Following drug addition, the plates are incubated for an additional 48 h at 37° C., 5% CO2, 95% air, and 100% relative humidity. For adherent cells, the assay is terminated by the addition of cold TCA (trichloroacetic acid). Cells are fixed in situ by the gentle addition of 50 μl of cold 50% (w/v) TCA (final concentration, 10% TCA) and incubated for 60 minutes at 4° C. The supernatant is discarded, and the plates are washed five times with tap water and air dried. Sulforhodamine B (SRB) solution (100 μl) at 0.4% (w/v) in 1% acetic acid is added to each well, and plates are incubated for 10 minutes at room temperature. After staining, unbound dye is removed by washing five times with 1% acetic acid and the plates are air dried. Bound stain is subsequently solubilised with 10 mM trizma base, and the absorbance is read on an automated plate reader at a wavelength of 515 nm. For suspension cells, the methodology is the same except that the assay is terminated by fixing settled cells at the bottom of the wells by gently adding 50 μl of 80% TCA (final concentration, 16% TCA). Using the seven absorbance measurements [time zero, (Tz), control growth, (C), and test growth in the presence of drug at the five concentration levels (Ti)], the percentage growth is calculated at each of the drug concentrations levels. Percentage growth inhibition is calculated as: [(Ti−Tz)/(C−Tz)]×100 for concentrations for which Ti>/=Tz and [(Ti−Tz)/Tz]×100 for concentrations for which Ti<Tz.
(§4) Three dose response parameters are calculated for each experimental agent. Growth inhibition of 50% (GI50) is calculated from [(Ti−Tz)/(C−Tz)]×100=50, which is the drug concentration resulting in a 50% reduction in the net protein increase (as measured by SRB staining) in control cells during the drug incubation. The drug concentration resulting in total growth inhibition (TGI) is calculated from Ti=Tz. The LC50 (concentration of drug resulting in a 50% reduction in the measured protein at the end of the drug treatment as compared to that at the beginning) indicating a net loss of cells following treatment is calculated from [(Ti−Tz)/Tz]×100=−50. Values are calculated for each of these three parameters if the level of activity is reached. However, if the effect is not reached or is exceeded, the value for that parameter is expressed as greater or less than the maximum or minimum concentration tested.

HT29 = experiment: NCI screening panel, HT29 (Colon Cancer)
Experimental: as §1, §2, §3, §4

UO-31 = experiment: NCI screening panel, UO-31 (Renal Cancer)
Experimental: as §1, §2, §3, §4

NCI-H23 = experiment: NCI screening panel, NCI-H23 (Non-Small Cell Lung Cancer)
Experimental: as §1, §2, §3, §4

SNB-75 = experiment: NCI screening panel, SNB-75 (CNS Cancer)
Experimental: as §1, §2, §3, §4

SF-539 = experiment: NCI screening panel, SF-539 (CNS Cancer)
Experimental: as §1, §2, §3, §4

OVCAR-5 = experiment: NCI screening panel, OVCAR-5 (Ovarian Cancer)
Experimental: as §1, §2, §3, §4

MOLT-4 = experiment: NCI screening panel, MOLT-4 (Leukemia)
Experimental: as §1, §2, §3, §4

A498 = experiment: NCI screening panel, A498 (Renal Cancer)
Experimental: as §1, §2, §3, §4

RPMI-8226 = experiment: NCI screening panel, RPMI-8226 (Leukemia)
Experimental: as §1, §2, §3, §4

MCF7 = experiment: NCI screening panel, MCF7 (Breast Cancer)
Experimental: as §1, §2, §3, §4

M14 = experiment: NCI screening panel, M14 (Melanoma)
Experimental: as §1, §2, §3, §4

TK-10 = experiment: NCI screening panel, TK-10 (Renal Cancer)
Experimental: as §1, §2, §3, §4

HS 578T = experiment: NCI screening panel, HS 578T (Breast Cancer)
Experimental: as §1, §2, §3, §4

NCI-H322M = experiment: NCI screening panel, NCI-H322M (Non-Small Cell Lung Cancer)
Experimental: as §1, §2, §3, §4

SN12C = experiment: NCI screening panel, SN12C (Renal Cancer)
Experimental: as §1, §2, §3, §4

OVCAR-4 = experiment: NCI screening panel, OVCAR-4 (Ovarian Cancer)
Experimental: as §1, §2, §3, §4

Question: For CC(C)C[C@H](NC(=O)[C@H](COC(F)F)NC(=O)CN1CCOCC1)C(=O)N[C@@H](Cc1ccccc1)C(=O)N[C@@H](CC(C)C)C(=O)[C@@]1(C)CO1 [Example 2, (2S)-N-[(1S)-1-benzyl-2-[[(1S)-3-methyl-1-[(2R)-2-methyloxirane-2-carbonyl]butyl]-amino]-2-oxo-ethyl]-2-[[(2S)-3-(difluoromethoxy)-2-[(2-morpholinoacetyl)amino]propanoyl]amino]-4-methyl-pentanamide], which Log10GI50 (KM12) is on record?
Answer: −7.85

Question: And the Log10LC50 (KM12)?
Answer: −7.01

Question: What about the Log10TGI50 (KM12) of the same molecule?
Answer: −7.43

Question: What about the Log10GI50 (HT29) of the same molecule?
Answer: <−8.00

Question: What about the Log10LC50 (HT29) of the same molecule?
Answer: >−4.00

Question: What about the Log10TGI50 (HT29) of the same molecule?
Answer: −7.04

Question: What about the Log10GI50 (UO-31) of the same molecule?
Answer: −6.49

Question: And the Log10LC50 (UO-31)?
Answer: −5.01

Question: And the Log10TGI50 (UO-31)?
Answer: −5.80

Question: What about the Log10GI50 (NCI-H23) of the same molecule?
Answer: −7.73

Question: And the Log10LC50 (NCI-H23)?
Answer: >−4.00

Question: What about the Log10TGI50 (NCI-H23) of the same molecule?
Answer: −6.67

Question: And the Log10GI50 (SNB-75)?
Answer: −7.75

Question: And the Log10LC50 (SNB-75)?
Answer: −5.91

Question: And the Log10TGI50 (SNB-75)?
Answer: −7.30

Question: What about the Log10GI50 (SF-539) of the same molecule?
Answer: −7.87

Question: What about the Log10LC50 (SF-539) of the same molecule?
Answer: −7.06

Question: What about the Log10TGI50 (SF-539) of the same molecule?
Answer: −7.46

Question: What about the Log10GI50 (OVCAR-5) of the same molecule?
Answer: −7.47

Question: What about the Log10LC50 (OVCAR-5) of the same molecule?
Answer: −4.54

Question: What about the Log10TGI50 (OVCAR-5) of the same molecule?
Answer: −6.70

Question: What about the Log10GI50 (MOLT-4) of the same molecule?
Answer: <-8.00

Question: What about the Log10LC50 (MOLT-4) of the same molecule?
Answer: >−4.00

Question: And the Log10TGI50 (MOLT-4)?
Answer: −5.79

Question: What about the Log10GI50 (A498) of the same molecule?
Answer: −7.67

Question: And the Log10LC50 (A498)?
Answer: −6.23

Question: And the Log10TGI50 (A498)?
Answer: −7.12

Question: And the Log10GI50 (RPMI-8226)?
Answer: −7.98

Question: And the Log10LC50 (RPMI-8226)?
Answer: >−4.00

Question: What about the Log10TGI50 (RPMI-8226) of the same molecule?
Answer: −7.24

Question: And the Log10GI50 (MCF7)?
Answer: <-8.00

Question: What about the Log10LC50 (MCF7) of the same molecule?
Answer: >−4.00

Question: And the Log10TGI50 (MCF7)?
Answer: −4.94

Question: What about the Log10GI50 (M14) of the same molecule?
Answer: −7.39

Question: What about the Log10LC50 (M14) of the same molecule?
Answer: >−4.00

Question: What about the Log10TGI50 (M14) of the same molecule?
Answer: −6.26

Question: And the Log10GI50 (TK-10)?
Answer: −7.47

Question: What about the Log10LC50 (TK-10) of the same molecule?
Answer: >−4.00

Question: What about the Log10TGI50 (TK-10) of the same molecule?
Answer: −5.73

Question: What about the Log10GI50 (HS 578T) of the same molecule?
Answer: −7.71

Question: And the Log10TGI50 (HS 578T)?
Answer: >−4.00

Question: What about the Log10GI50 (NCI-H322M) of the same molecule?
Answer: −7.01

Question: What about the Log10LC50 (NCI-H322M) of the same molecule?
Answer: −5.35

Question: What about the Log10TGI50 (NCI-H322M) of the same molecule?
Answer: −6.43

Question: What about the Log10GI50 (SN12C) of the same molecule?
Answer: −7.40

Question: What about the Log10LC50 (SN12C) of the same molecule?
Answer: −4.92

Question: And the Log10TGI50 (SN12C)?
Answer: −6.64

Question: And the Log10GI50 (OVCAR-4)?
Answer: −7.84

Question: And the Log10LC50 (OVCAR-4)?
Answer: >−4.00

Question: And the Log10TGI50 (OVCAR-4)?
Answer: −6.49

Question: Which results are given for CC(C)C[C@H](NC(=O)[C@H](COC(F)F)NC(=O)[C@H](COC(F)F)NC(=O)[C@H](COC(F)F)NC(=O)CN1CCOCC1)C(=O)[C@@]1(C)CO1 [Example 17, (2S)-3-(difluoromethoxy)-N-[(1S)-1-(difluoromethoxymethyl)-2-[[(1S)-1-(difluoro-methoxymethyl)-2-[[(1S)-3-methyl-1-[(2R)-2-methyloxirane-2-carbonyl]butyl]amino]-2-oxo-ethyl]amino]-2-oxo-ethyl]-2-[(2-mor-pholinoacetyl)amino]-propanamide]?
Answer: Log10GI50 (KM12): −7.34; Log10LC50 (KM12): −6.24; Log10TGI50 (KM12): −6.73; Log10GI50 (HT29): −7.30; Log10LC50 (HT29): >−4.00; Log10TGI50 (HT29): −6.28; Log10GI50 (UO-31): −5.40; Log10LC50 (UO-31): −4.00; Log10TGI50 (UO-31): −4.65; Log10GI50 (NCI-H23): −7.15; Log10LC50 (NCI-H23): >−4.00; Log10TGI50 (NCI-H23): −5.98; Log10GI50 (SNB-75): −7.15; Log10LC50 (SNB-75): >−4.00; Log10TGI50 (SNB-75): −6.39; Log10GI50 (SF-539): −7.38; Log10TGI50 (SF-539): −6.67; Log10GI50 (OVCAR-5): −6.55; Log10LC50 (OVCAR-5): >−4.00; Log10TGI50 (OVCAR-5): −5.71; Log10GI50 (MOLT-4): −7.42; Log10LC50 (MOLT-4): >−4.00; Log10TGI50 (MOLT-4): −6.41; Log10GI50 (A498): −6.87; Log10LC50 (A498): −5.44; Log10TGI50 (A498): −6.22; Log10GI50 (RPMI-8226): −7.14; Log10LC50 (RPMI-8226): >−4.00; Log10TGI50 (RPMI-8226): -6.15; Log10GI50 (MCF7): −7.57; Log10LC50 (MCF7): >−4.00; Log10TGI50 (MCF7): >−4.00; Log10GI50 (M14): −6.59; Log10LC50 (M14): >−4.00; Log10TGI50 (M14): −5.41; Log10GI50 (TK-10): −6.30; Log10LC50 (TK-10): >−4.00; Log10TGI50 (TK-10): −4.85; Log10GI50 (HS 578T): −7.15; Log10LC50 (HS 578T): >−4.00; Log10TGI50 (HS 578T): −5.27; Log10GI50 (NCI-H322M): −6.58; Log10LC50 (NCI-H322M): −4.92; Log10TGI50 (NCI-H322M): −5.73; Log10GI50 (SN12C): −6.71; Log10LC50 (SN12C): −5.06; Log10TGI50 (SN12C): −6.08; Log10GI50 (OVCAR-4): −7.23; Log10LC50 (OVCAR-4): >−4.00; Log10TGI50 (OVCAR-4): −4.55
